Results taken from article PMC6244206, “C-Terminal Residue of Ultrashort Peptides Impacts on Molecular Self-Assembly, Hydrogelation, and Interaction with Small-Molecule Drugs” (Scientific Reports, 2018).
Several values for one entry are separate records, joined by “and”; a condition that tells them apart may be missing. Equal entries are not always repeated.

Columns and labels:
[1] = Small-molecule drug elution studies from peptide hydrogels; format: physicochemical; details: for Drug loading capacity in the peptide hydrogels: SMD 2 mM in peptide hydrogels 20 mM (peptides 1A and 1B)
Method: We compared the SMD elution profiles of the peptide hydrogels with the theoretical maximal amount of SMD that would diffuse from the hydrogel into the extra volume of PBS if there were no obstruction to diffusion.
The peptides were weighed out in 4 mL-vials, after which phosphate-buffered saline (PBS) containing the small-molecule drug (SMD final concentration = 2 mM) was added to a final volume of 0.30 mL each. The peptide-SMD-PBS mixtures were then shaken and sonicated for 10 s, after which the mixtures were allowed to anneal for 24 h. After that, 0.75 mL of fresh PBS was slowly added with a pipettor to the surface of the hydrogel so as not to disturb the surface of the gel. After 24 h at 25 °C, the PBS was carefully extracted with a pipettor for UV/vis analysis; a fresh volume (0.75 mL) of PBS was then replaced. This process was repeated as many times as the number of pre-determined elution samples. The extracted PBS was transferred into a cuvette (pathlength = 10 mm) and analysed with an Agilent 8543 UV/visible spectrometer for the presence of the SMD. […] A control experiment was set up for each peptide hydrogel, for which no drug was added. This is to account for absorption at the respective wavelengths due to eluted peptide. The elution profile of each peptide is compared with a theoretical maximal elution profile, viz. the theoretical maximal amount of SMD that would diffuse from the hydrogel into the extra volume of PBS if there were no obstruction to diffusion. The cumulative eluted percentage of SMD at each point is given by: [1 − (1/3.5)^n] 100%, where n is the number of elution.

[2] = Zeta potential measurements of peptide fibrils; format: physicochemical; details: in water, peptide 10 mM, 25 °C; mean of triplicate measurements
Method: The zeta potential of the peptide fibrils was measured with an Anton Paar Litesizer 500 Particle Sizer. An omega zeta potential cuvette was utilised for the measurements, which was kept at a constant temperature of 25 °C. Triplicate measurements of each peptide sample were made at concentrations of 10 mM in water.

[3] = Gelation studies of peptides in PBS; format: physicochemical
Method: Although peptide 1C could form a gel at 40 mg/mL (30 mM), the hydrogel formed was opaque and inhomogeneous; this is a big contrast to peptide 1A that forms a clear and transparent hydrogel (Fig. 3a). […] On the other hand, perhaps unsurprisingly, the tripeptides generally require higher concentrations to gel. Peptide 2A was previously reported to require a higher peptide concentration to gel than peptide 1A[50]. This has also been observed for peptide 2B, in which 30 mM is required (c.f. 15 mM for peptide 2A). […] As with peptide 1D, peptide 2D could not gel and only precipitated. […] When the hydrophilic components are dominant, the enhanced solubility reduces the driving forces for self-assembly. Consequently, hydrogelation is observed at markedly higher concentrations. Such a balance of hydrophilicity/hydrophobicity has been exploited (via enzymatic control) for the formulation of hydrogels[52],[53].
All peptides were prepared via fluoren-9-ylmethoxycarbonyl (Fmoc)-based solid phase peptide synthesis and purified via reversed-phase high performance liquid chromatography-mass spectrometry (HPLC-MS) on an Agilent 6130 Quadrupole LC/MS system. Peptide hydrogels were prepared by weighing out the appropriate peptide mass in 2 mL-vials. After the requisite volume of phosphate-buffered saline (PBS) was added, the peptide-water mixture was shaken and sonicated for 10 s. […]

[4] = Rheological studies of the peptide hydrogels; format: physicochemical; details: hydrogels 40 mg/mL in PBS, oscillatory strain sweep, 6.28 rad/s, 25 °C, triplicates
Method: Viscoelastic properties of the hydrogels were assessed at 25 °C with an ARES-G2 rheometer (TA Instruments, Piscataway, NJ) in the 25.0 mm-diameter titanium parallel plate geometry and a gap distance of 0.8 mm. For oscillatory frequency sweep studies, the plate rotation was varied between 0.1–100 rad/s at a constant strain of 0.1%. For oscillatory strain sweep studies, the strain was varied between 0.001–100% at a constant frequency of 6.28 rad/s. Each experiment was carried out in triplicates. This procedure was also previously described by us[88].

[5] = PBS; previously reported; cited from earlier work
Method: Although peptide 1C could form a gel at 40 mg/mL (30 mM), the hydrogel formed was opaque and inhomogeneous; this is a big contrast to peptide 1A that forms a clear and transparent hydrogel (Fig. 3a). […] This is a big contrast to peptides 1E and 2E, which were previously reported t ...

[6] = Solubility of peptides in phosphate-buffered saline to form clear solutions; format: physicochemical; details: pH 7.4
Method: The peptides were prepared via standard solid-phase peptide synthesis. The purification of all peptides was straightforward, except for peptide 1D. […] As a result, it frequently precipitated on the reversed-phase column during HPLC (high performance liquid chromatography) purification with a gradient of acetonitrile/water, leading to poor yields (<10%). The solubilities of peptides 1 and 2 in phosphate-buffered saline (PBS; pH 7.4) to form clear solutions were then tested; peptides 1A and 2A were also assessed as references. […] As Table 1 indicates, the hexapeptides dissolve to a lower extent than the tripeptides. This is reflective of the greater propensity of the hexapeptides to self-assemble and aggregate due to their longer hydrophobic backbone. In addition, peptides with lysine and arginine dissolve to a greater extent due to their charged side chains at pH 7.4.

[7] = cited from earlier work

## CN(Cc1cnc2nc(N)nc(N)c2n1)c1ccc(C(=O)N[C@@H](CCC(=O)O)C(=O)O)cc1 [methotrexate, reference compound]
[1]
  Drug loading capacity in the peptide hydrogels: 0.89 mg/g

## acetylated Leu-Ile-Val-Ala-Gly-Lys-NH2 [Peptide 1A]
[2]
  Zeta potential: +33.40 ± 0.17 mV
[1]; doxorubicin 2 mM in PBS
  Hydrogel formation with doxorubicin: formed stable hydrogels
[1]; doxorubicin 2 mM in peptide hydrogel 20 mM, PBS pH 7.4, 25 °C, repeated elutions with 0.75 mL PBS, UV/vis 480 nm, n = 3
  Encapsulated doxorubicin eluted from peptide hydrogel: 40%
[1]; methotrexate 2 mM in PBS
  Hydrogel formation with methotrexate: could do so with methotrexate (with some coagulation within the hydrogel)
[1]; naltrexone 2 mM in PBS
  Hydrogel formation with naltrexone: formed stable hydrogels
[3]; 40 mg/mL in PBS
  Appearance of hydrogel at 40 mg/mL: transparent hydrogels
[3]; phosphate-buffered saline, pH 7.4, at minimal gelation concentration
  Status of gel: Clear, transparent
[4]
  Yield stress / strain at which the hydrogel breaks down: 3%
[5]
  Gelation concentration: 10 mg/mL and 6 mM
[6]
  Soluble peptide concentration: 3 mg/mL

## O=C1CC[C@@]2(O)[C@H]3Cc4ccc(O)c5c4[C@@]2(CCN3CC2CC2)[C@H]1O5 [naltrexone, reference compound]
[1]
  Drug loading capacity in the peptide hydrogels: 0.67 mg/g
[7]
  pKa: ~ 8.1
